This is an account of results in ChEMBL document CHEMBL5620396, “Phenotypic screening identifies a trisubstituted imidazo[1,2-a]pyridine series that induces differentiation in multiple AML cell lines” (Eur J Med Chem, 2023).

Calls of active or inactive are those of the source. No cut-off for these calls is given here.

A short description of data set [1]: Plasma protein binding in mouse. In kind it is ADME, cell-free. The following applies: read-out: PPB (converted).
Data set [2] can be described thus: AUC (0 to 8 hrs) in CD-1 mouse at 20 mg/kg, po administered as single dose and measured on day 1. In kind it is ADME, organism-based. Conditions: in vivo, time 1 day.
Data set [3] can be described thus: Oral bioavailability in CD-1 mouse at 3 mg/kg administered as single dose and measured over 24 hrs. In kind it is ADME, organism-based. The following applies: in vivo.
Data set [4] is described as follows: Dose normalized AUC (0 to 8 hrs) in CD-1 mouse at 1 mg/kg, po administered as repeated dose on day 1 and 4. The format is ADME, organism-based. The following applies: in vivo, 96 h, time 4 day.
Data set [5] is described as follows: AUC (0 to 8 hrs) in CD-1 mouse at 1 mg/kg, po administered as repeated dose on day 1 and 4. The format is ADME, organism-based. Conditions: in vivo, time 4 day.
A short description of data set [6]: Half life in CD-1 mouse at 1 mg/kg, po administered as repeated dose on day 1 and 4. In kind it is ADME, organism-based. The following applies: in vivo, time 4 day.
Data set [7] deals with KG-1. The data set is described as follows: Induction of morphological changes in human KG-1 cells assessed as variations in nuclear segmentation at 10 uM. The format is functional, cell-based.
The test system of data set [8] is Kasumi 1. The data set is described as follows: Induction of differentiation in human Kasumi 1 cells assessed as reduction in live cell number at 123 nM incubated for 4 days by acridine orange/DAPI staining based analysis. In kind it is functional. The following applies: time 4.0 day.
For data set [9], the system named is Kasumi 1. In words: Induction of morphological changes in human Kasumi 1 cells assessed as variations in nuclear:cytoplasmic ratio at 10 uM. The format is functional, cell-based.
Data set [10] deals with KG-1. In words: Induction of morphological changes in human KG-1 cells assessed as appearance of granules and vacuoles at 10 uM. In kind it is functional, cell-based.
Data set [11] has as its system OCI-AML-3. In words: Induction of morphological changes in human OCI-AML-3 cells assessed as variations in nuclear segmentation at 10 uM. In kind it is functional, cell-based.
A further data set relates to THP-1. In words: Induction of morphological changes in human THP-1 cells assessed as variations in nuclear:cytoplasmic ratio at 10 uM. The format is functional, cell-based.
The test system of the next data set is HL-60. In words: Induction of differentiation in human HL-60 cells assessed as reduction in live cell number at 123 nM incubated for 4 days by acridine orange/DAPI staining based analysis. The format is functional. The following applies: time 4.0 day.
Data set [12] has as its system OCI-AML-3. In words: Induction of morphological changes in human OCI-AML-3 cells assessed as variations in cell size and shape at 10 uM. The format is functional, cell-based.
Data set [13] can be described thus: AUC (0 to 8 hrs) in CD-1 mouse at 3 mg/kg, po administered as single dose and measured over 24 hrs. In kind it is ADME, organism-based. The following applies: in vivo.
Data set [14] can be described thus: Cmax in CD-1 mouse at 20 mg/kg, po administered as single dose and measured on day 1. The format is ADME, organism-based. Conditions: in vivo, time 1 day.

In general, AUC(0-t) refers to the area under the concentration-time curve up to a stated or last time point. A high value points to high exposure. One may read the bioavailability as dose-corrected exposure relative to a reference, in per cent. A lower bioavailability goes with little systemic uptake. What is called half-life is how long it takes for the measured level to halve. A lower half-life goes with fast loss. By Cmax is commonly meant the maximum level reached in the sampled fluid or tissue. In the case of `Cc1cc(F)ccc1-c1cc(NS(C)(=O)=O)c2ncc(-c3ccc4c(cnn4C)c3)n2c1`, in data set [1], the fraction unbound was 0.005. For the same compound, the values for the AUC(0-t) at 24 h in [2] and in data set [13] were 4460 ng·h/mL and 3060 ng·h/mL, respectively. The compound also returned a bioavailability in [3] of 100%. In data set [4], this compound had an AUC/dose of 731 ng·h/mL. In addition, the AUC(0-t) at 96 h in data set [5] was found to be 731 ng·h/mL. The same compound had a half-life in [6] of 2.5 h. In addition, the result in the data set with KG-1 [7], with Kasumi 1 [8], in the data set on Kasumi 1 [9], with KG-1 [10], with OCI-AML-3 [11] and in the data set with THP-1 was Active. For the same compound, the outcome in the data set with HL-60 and in the data set on OCI-AML-3 [12] was Active. The compound also returned a Cmax in data set [14] of 677 ng/mL.
